Experimental data reported in publication PMC4457840, “Differential Inhibition of Signal Peptide Peptidase Family Members by Established γ-Secretase Inhibitors” (PLoS ONE, 2015).
“Also recorded” adds a separate entry of the source.

Legend:
SPPL2a [1] = molecular target: T1, SPPL2a (Homo sapiens, UniProt Q8TCT8); assay: FBA/SPPL2a co-transfected HEK 293T cell cleavage assay (Aβ ELISA, Western blot); type: cell-based
T1 construct: expressed in transfected cells; host or cells: HEK 293T
T1 sequence (Q8TCT8 26-520): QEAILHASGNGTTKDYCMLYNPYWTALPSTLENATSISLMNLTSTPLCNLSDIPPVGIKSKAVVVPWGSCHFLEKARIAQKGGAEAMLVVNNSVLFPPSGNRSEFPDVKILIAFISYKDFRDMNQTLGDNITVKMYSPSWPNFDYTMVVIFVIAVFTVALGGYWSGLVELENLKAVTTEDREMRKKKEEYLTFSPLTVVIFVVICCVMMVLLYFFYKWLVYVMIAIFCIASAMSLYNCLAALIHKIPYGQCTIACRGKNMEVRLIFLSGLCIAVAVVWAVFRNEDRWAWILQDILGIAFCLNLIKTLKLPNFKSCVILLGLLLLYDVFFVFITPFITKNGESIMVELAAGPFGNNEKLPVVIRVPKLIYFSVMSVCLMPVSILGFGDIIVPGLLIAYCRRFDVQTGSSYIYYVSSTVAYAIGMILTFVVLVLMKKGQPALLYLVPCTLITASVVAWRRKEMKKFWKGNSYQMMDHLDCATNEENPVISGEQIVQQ
From the text: (§1) Expression constructs in pcDNA6 for COOH-terminal FLAG (DYKDDDDK) and strep (WSHPQFEK) tagged SPPL2a, SPPL2b, hSPP and pSPP were generated as previously described. Untagged versions of all enzymes were also made and ligated into the pAG3 vector. Substrates (Fig 1) were designed as follows: FLAG-BRI2_1-81- Aβ1-25/K16A (FBA). The K16A mutation was incorporated to prevent potential α-secretase cleavage that would preclude ELISA based detection of the released COOH-terminal fragment. The substrate DNA was cloned into the expression vector pcDNA6. Constructs were confirmed by DNA sequencing. The overexpression of substrates was performed by transiently transfecting human embryonic kidney (HEK 293T) cells with or without SPP/SPPL vectors. Cells were grown in DMEM media supplemented with Hyclone 10% fetal bovine serum (GE, Logan, Utah, USA) and 1% penicillin/streptomycin (Life Technologies, Grand Island, NY, USA). Briefly, 2.7 μg DNA was applied to a 75% confluent 6 well plate (Corning, Tewksbury, MA, USA) using the polycation polyethylenimine (PEI) transfection method. Inhibitor testing experiments were conducted in 48 well plates with appropriately adjusted amounts of DNA and PEI and incubated 12–16 hours, after which the growth medium was replaced with fresh medium. DMSO (Sigma, St. Louis, MO, USA) and GSIs were added at the appropriate concentration. The GSIs, L685,458 and Compound W were purchased from Tocris (Tocris, Bristol, UK). (Z-LL)2 ketone, Compound E, DAPT, GSI II were purchased from Calbiochem (Merck Millipore, Billerica, MA, USA). LY-411,575 was synthesized by A. Fauq at the Mayo Clinic Chemical Core. Twenty-four hours later, the medium was collected for assay by ELISA and MS. A20 cells (TIB-208) (ATCC, Manassas, VA, USA) were cultured in RPMI-1640 medium (ATCC) supplied with 10% fetal bovine serum, 1% penicillin/streptomycin and 0.05 mM 2-mercaptoethanol (Life Technologies). At the density of 5x10^5 cells/ml, A20 cells were spun down at 1000 g for 2 min and resuspended in fresh medium supplied with DMSO or GSIs and incubated for 16 hr.
(§2) Sandwich ELISAs used for Aβ detection were performed as previously described. Briefly, Aβ and Aβ adducts with substrate TMD in conditioned media was captured with Ab5 antibody (human Aβ1–16 specific) and detected with horseradish peroxidase mAb 4G8 (Covance, Princeton, NJ, USA). Synthetic Aβ1–40 was used as standard. All ELISAs were developed with TMB substrate (KPL, Gaithersburg, Maryland, USA). Bis-Tris precast gels (Biorad, Hercules, CA, USA) were used for all SDS-PAGE. Monoclonal anti-FLAG M2 antibody (Sigma) and Aβ1–16 antibody 6E10 (Covance) were used for Western blotting. Antisera against SPPL2a, SPPL2b, hSPP and pSPP were generated as previously described and were used at dilution of 1:1000 for Western blotting. Anti-CD74 In-1 antibody (BD Bioscience, San Jose, CA, USA) was used for A20 cell lysate Western blotting at dilution of 1:1000.

SPPL2b = molecular target: T2, SPPL2b (Homo sapiens, UniProt Q8TCT7); assay: FBA/SPPL2b co-transfected HEK 293T cell cleavage assay (Aβ ELISA, Western blot, IP/MS); type: cell-based
T2 construct: expressed in transfected cells; host or cells: HEK 293T
T2 sequence (Q8TCT7 26-592): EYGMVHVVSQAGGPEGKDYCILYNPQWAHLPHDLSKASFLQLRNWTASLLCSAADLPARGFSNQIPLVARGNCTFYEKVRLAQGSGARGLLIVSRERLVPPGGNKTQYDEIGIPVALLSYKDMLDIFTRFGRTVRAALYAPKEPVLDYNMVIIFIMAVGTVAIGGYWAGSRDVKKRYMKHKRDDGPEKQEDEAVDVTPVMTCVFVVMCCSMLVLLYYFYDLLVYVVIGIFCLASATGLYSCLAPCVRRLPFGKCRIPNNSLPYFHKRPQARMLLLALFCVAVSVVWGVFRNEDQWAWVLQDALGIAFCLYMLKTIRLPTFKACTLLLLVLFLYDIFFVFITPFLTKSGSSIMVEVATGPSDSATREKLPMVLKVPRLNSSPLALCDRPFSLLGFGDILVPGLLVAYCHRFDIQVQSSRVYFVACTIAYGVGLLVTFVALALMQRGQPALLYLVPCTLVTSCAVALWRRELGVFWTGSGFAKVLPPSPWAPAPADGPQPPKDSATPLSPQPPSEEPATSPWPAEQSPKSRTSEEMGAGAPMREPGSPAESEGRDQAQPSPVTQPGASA
From the text: as §1, §2
(§3) Immunoprecipitation and mass spectrometry of xAβ1–25 in conditioned media were performed as previously described. In this study, 10 ml conditioned media were used for each experiment. ICDs were immunoprecipitated with anti-FLAG M2 magnetic beads. Cells from 10 cm dished treated with DMSO or 20 μM LY-411,575 were used for each test.

hSPP = molecular target: T3, hSPP (Homo sapiens, UniProt Q8TCT9); assay: FBA/hSPP co-transfected HEK 293T cell cleavage assay (Aβ ELISA, Western blot, IP/MS); type: cell-based; conditions: for IC50: HEK cells, 24 h, xAβ1-25/K16A by Aβ ELISA, mean ± standard error, read-out: IC50 on FBA/SPPL co-transfected cells
T3 construct: expressed in transfected cells; host or cells: HEK 293T
T3 sequence (Q8TCT9 1-377): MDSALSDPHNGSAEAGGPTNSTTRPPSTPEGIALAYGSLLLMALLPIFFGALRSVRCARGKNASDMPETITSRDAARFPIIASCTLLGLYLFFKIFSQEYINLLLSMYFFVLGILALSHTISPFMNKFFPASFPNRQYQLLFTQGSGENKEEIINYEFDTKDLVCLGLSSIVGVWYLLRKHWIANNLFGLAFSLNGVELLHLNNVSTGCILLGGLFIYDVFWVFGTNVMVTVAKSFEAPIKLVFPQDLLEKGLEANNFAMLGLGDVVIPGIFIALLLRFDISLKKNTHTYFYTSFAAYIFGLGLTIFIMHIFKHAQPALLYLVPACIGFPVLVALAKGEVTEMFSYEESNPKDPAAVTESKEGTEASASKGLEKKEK
From the text: as §1, §2, §3

pSPP = pSPP (Plasmodium falciparum, UniProt Q8IKQ9); assay: FBA/pSPP co-transfected HEK 293T cell cleavage assay (Aβ ELISA, Western blot, IP/MS); type: cell-based, human; conditions: for inhibition of xAβ1-25/K16A secretion (in words): 25 μM, ELISA
From the text: as §1, §2, §3

SPPL2a [2] = test system: T4, SPPL2a; assay: Endogenous CD74 NTF P8 turnover in non-overexpressing A20 cells (Western blot, In-1 antibody); type: cell-based, mouse
T4 construct: endogenous SPPL2a cleavage of CD74 in a murine B-Cell line; host or cells: A20 mouse B lymphocyte cells
Description: as §1, with “Untagged” for “Expression constructs in pcDNA6 for COOH-terminal FLAG (DYKDDDDK) and strep (WSHPQFEK) tagged SPPL2a, SPPL2b, hSPP and pSPP were generated as previously described. Untagged”
as §2

SPP = test system: SPP; design: method as in PMID 15252014, PMID 19337374, PMID 12621027; conditions: cited from earlier work
[3] = HEK cells, 24 h, xAβ1-25/K16A by Aβ ELISA, mean ± standard error, read-out: IC50 on FBA/SPPL co-transfected cells
[4] = HEK-293T, 25 μM, ELISA, DMSO = 100%, read-out: inhibition of the SPP/SPPLs
[5] = number in parenthesis in Table 3

Chain of pSPP (Q8IKQ9 entry or part of it): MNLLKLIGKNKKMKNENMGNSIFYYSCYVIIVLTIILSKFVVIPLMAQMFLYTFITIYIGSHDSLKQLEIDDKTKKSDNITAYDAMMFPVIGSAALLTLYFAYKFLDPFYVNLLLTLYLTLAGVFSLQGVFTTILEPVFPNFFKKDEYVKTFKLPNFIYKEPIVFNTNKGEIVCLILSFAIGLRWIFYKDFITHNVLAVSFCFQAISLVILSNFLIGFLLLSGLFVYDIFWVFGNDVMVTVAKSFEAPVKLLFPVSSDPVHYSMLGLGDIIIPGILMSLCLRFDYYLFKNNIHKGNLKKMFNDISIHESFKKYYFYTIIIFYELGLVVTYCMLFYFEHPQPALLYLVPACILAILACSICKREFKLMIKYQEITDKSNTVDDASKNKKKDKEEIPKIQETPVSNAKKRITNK

With O=C(O)c1cc(Oc2ccc([N+](=O)[O-])cc2)cc(Oc2ccc([N+](=O)[O-])cc2)c1 [Comp W, Compound W] the “inhibition of xAβ1-25/K16A secretion (in words)” value (“inhibition … (in words)” below) (SPPL2a [1]; 25 μM, ELISA) was “does not show inhibition”, the “inhibition … (in words)” value (SPPL2b; 25 μM, ELISA) was “does not show inhibition” and the “inhibition … (in words)” value (hSPP; 25 μM, ELISA) was “does not show inhibition”. For the same compound, the “inhibition … (in words)” value (pSPP; pSPP) was “does not show inhibition”.

For C[C@H](NC(=O)Cc1cc(F)cc(F)c1)C(=O)N[C@@H]1C(=O)N(C)c2ccccc2-c2ccccc21 [DBZ], the “inhibition of FBA cleavage (10 kD ICD) by Western blot” value (SPPL2b; Fig 3C upper panel) was “slightly reduce”, the “inhibition … (in words)” value (hSPP; 25 μM, ELISA) was “inhibited; also recorded: selectively inhibit hSPP cleavage” and the “inhibition of FBA cleavage by Western blot” value (hSPP; Fig 3C lower panel) was “efficiently inhibited”. The IC50 (hSPP) was 0.948 ± 0.093 µM, the “dose response of P8 fragment stabilization (in words)” value (SPPL2a [2]; different doses) was “stabilized the P8 fragment in a dose dependent manner; also recorded: much weaker inhibition” and the “concentration at which effect was first seen” value (SPPL2a [2]; dose response) was 1 µM.

In the case of CC(C)C[C@H](NC(=O)[C@H](Cc1ccccc1)C[C@@H](O)[C@H](Cc1ccccc1)NC(=O)OC(C)(C)C)C(=O)N[C@@H](Cc1ccccc1)C(N)=O [L685,458], the “inhibition … (in words)” value (SPPL2a [1]; 25 μM, ELISA) is reported as “largely inhibited”, the IC50 (SPPL2a [1]; [3]) is reported as 0.57 ± 0.09 µM and the inhibition at 25 µM (SPPL2a [1]; [4]) is reported as over 90%. For the same compound, the “rank order of inhibition” value (SPPL2a [1]; [5]) was 3, the “inhibition … (in words)” value (SPPL2b; 25 μM, ELISA) was “largely inhibited” and the IC50 (SPPL2b; [3]) was 0.876 ± 0.133 µM. The inhibition at 25 µM (SPPL2b; [4]) was over 90%, the “rank order of inhibition” value (SPPL2b; [5]) was 1 and the “inhibition … (in words)” value (hSPP; 25 μM, ELISA) was “largely inhibited”. The IC50 (hSPP) was 0.319 ± 0.091 µM, the inhibition at 25 µM (hSPP; [4]) was over 90% and the “rank order of inhibition” value (hSPP; [5]) was 2. The IC50 (pSPP) was 0.161 ± 0.097 µM, the inhibition at 25 µM (pSPP; HEK-293T, read-out: inhibition of the SPP/SPPLs) was over 90% and the “inhibition … (in words)” value (pSPP; pSPP) was “largely inhibited”. For the same compound, the “rank order of inhibition” value (pSPP; pSPP, number in parenthesis in Table 3) was 1 and the “inhibition of SPP activity” value (SPP) was “inhibit the activity of SPP”.
